The NIST ThermoML archive (doi:10.1016/j.fluid.2006.01.022)
± gives the expanded uncertainty stated by the source.

Experiment: xn = mol fraction of the nth substance listed
Settings: Liquid, Alternating current cell with electrodes

Which results are given for `[Br][Al]([Br])[Br]` [aluminum bromide] + CCn1cc[n+](C)c1.[Br-]?
electrical conductivity (258.1 K, x1 = 0.3): 0.048 ± 0.0096 S/m; electrical conductivity (258.1 K, x1 = 0.6): 0.0432 ± 0.0086 S/m; electrical conductivity (263.1 K, x1 = 0.3): 0.0898 ± 0.018 S/m; electrical conductivity (263.1 K, x1 = 0.6): 0.0717 ± 0.014 S/m; electrical conductivity (268.1 K, x1 = 0.3): 0.122 ± 0.024 S/m; electrical conductivity (268.1 K, x1 = 0.6): 0.113 ± 0.023 S/m; electrical conductivity (273.1 K, x1 = 0.3): 0.22 ± 0.044 S/m; electrical conductivity (273.1 K, x1 = 0.6): 0.16 ± 0.032 S/m; electrical conductivity (278.1 K, x1 = 0.3): 0.284 ± 0.057 S/m; electrical conductivity (278.1 K, x1 = 0.6): 0.226 ± 0.045 S/m; electrical conductivity (283.1 K, x1 = 0.3): 0.454 ± 0.091 S/m; electrical conductivity (283.1 K, x1 = 0.6): 0.338 ± 0.068 S/m; electrical conductivity (288.1 K, x1 = 0.3): 0.599 ± 0.12 S/m; electrical conductivity (288.1 K, x1 = 0.6): 0.447 ± 0.089 S/m; electrical conductivity (293.1 K, x1 = 0.3): 0.784 ± 0.16 S/m; electrical conductivity (293.1 K, x1 = 0.6): 0.645 ± 0.13 S/m; electrical conductivity (298.1 K, x1 = 0.3): 0.979 ± 0.2 S/m; electrical conductivity (298.1 K, x1 = 0.6): 0.877 ± 0.17 S/m; electrical conductivity (303.1 K, x1 = 0.3): 1.21 ± 0.24 S/m; electrical conductivity (303.1 K, x1 = 0.6): 1.14 ± 0.23 S/m; electrical conductivity (308.1 K, x1 = 0.3): 1.49 ± 0.3 S/m; electrical conductivity (308.1 K, x1 = 0.6): 1.42 ± 0.28 S/m; electrical conductivity (313.1 K, x1 = 0.3): 1.82 ± 0.36 S/m; electrical conductivity (313.1 K, x1 = 0.6): 1.75 ± 0.35 S/m; electrical conductivity (318.1 K, x1 = 0.3): 2.14 ± 0.43 S/m; electrical conductivity (318.1 K, x1 = 0.6): 2.11 ± 0.42 S/m; electrical conductivity (323.1 K, x1 = 0.3): 2.54 ± 0.51 S/m; electrical conductivity (323.1 K, x1 = 0.6): 2.56 ± 0.51 S/m; electrical conductivity (328.1 K, x1 = 0.3): 3.05 ± 0.61 S/m; electrical conductivity (328.1 K, x1 = 0.6): 3.04 ± 0.61 S/m; electrical conductivity (333.1 K, x1 = 0.3): 3.5 ± 0.7 S/m; electrical conductivity (333.1 K, x1 = 0.6): 3.62 ± 0.72 S/m; electrical conductivity (338.1 K, x1 = 0.3): 4.05 ± 0.81 S/m; electrical conductivity (338.1 K, x1 = 0.6): 4.22 ± 0.84 S/m; electrical conductivity (343.1 K, x1 = 0.3): 4.6 ± 0.92 S/m; electrical conductivity (343.1 K, x1 = 0.6): 4.87 ± 0.97 S/m; electrical conductivity (348.1 K, x1 = 0.3): 5.14 ± 1 S/m; electrical conductivity (348.1 K, x1 = 0.6): 5.56 ± 1.1 S/m; electrical conductivity (353.1 K, x1 = 0.3): 5.79 ± 1.2 S/m; electrical conductivity (353.1 K, x1 = 0.6): 6.35 ± 1.3 S/m; electrical conductivity (358.1 K, x1 = 0.3): 6.95 ± 1.4 S/m; electrical conductivity (358.1 K, x1 = 0.6): 7.16 ± 1.4 S/m; electrical conductivity (363.1 K, x1 = 0.3): 7.62 ± 1.5 S/m; electrical conductivity (363.1 K, x1 = 0.6): 7.79 ± 1.6 S/m; electrical conductivity (368.1 K, x1 = 0.3): 8.28 ± 1.7 S/m; electrical conductivity (368.1 K, x1 = 0.6): 8.57 ± 1.7 S/m; electrical conductivity (373.1 K, x1 = 0.3): 8.95 ± 1.8 S/m; electrical conductivity (373.1 K, x1 = 0.6): 9.46 ± 1.9 S/m; electrical conductivity (378.1 K, x1 = 0.3): 9.7 ± 1.9 S/m; electrical conductivity (378.1 K, x1 = 0.6): 10.4 ± 2.1 S/m; electrical conductivity (383.1 K, x1 = 0.3): 10.6 ± 2.1 S/m; electrical conductivity (383.1 K, x1 = 0.6): 11.4 ± 2.3 S/m; electrical conductivity (388.1 K, x1 = 0.3): 11.4 ± 2.3 S/m; electrical conductivity (388.1 K, x1 = 0.6): 12.3 ± 2.5 S/m; electrical conductivity (393.1 K, x1 = 0.3): 12 ± 2.4 S/m; electrical conductivity (393.1 K, x1 = 0.6): 12.8 ± 2.6 S/m; electrical conductivity (398.1 K, x1 = 0.6): 13.7 ± 2.7 S/m; electrical conductivity (403.1 K, x1 = 0.6): 14.5 ± 2.9 S/m; electrical conductivity (408.1 K, x1 = 0.6): 15.3 ± 3.1 S/m; electrical conductivity (413.1 K, x1 = 0.6): 15.8 ± 3.2 S/m; electrical conductivity (418.1 K, x1 = 0.6): 16.5 ± 3.3 S/m

Which electrical conductivity (253.1 K, x1 = 0.33) does the source give for `[Cl][Al]([Cl])[Cl]` [aluminum chloride] + CCn1cc[n+](C)c1.[Cl-] here?
The electrical conductivity was 0.0315 ± 0.0063 S/m.

What about the electrical conductivity (253.1 K, x1 = 0.6) of the same molecule?
The electrical conductivity was 0.0377 ± 0.0075 S/m.

What about the electrical conductivity (258.1 K, x1 = 0.33) of the same molecule?
Its electrical conductivity is 0.0515 ± 0.01 S/m.

What about the electrical conductivity (258.1 K, x1 = 0.6) of the same molecule?
The electrical conductivity was 0.0517 ± 0.01 S/m.

And the electrical conductivity (263.1 K, x1 = 0.33)?
The electrical conductivity was 0.0855 ± 0.017 S/m.

What about the electrical conductivity (263.1 K, x1 = 0.6) of the same molecule?
Its electrical conductivity is 0.1 ± 0.02 S/m.

And the electrical conductivity (268.1 K, x1 = 0.33)?
Its electrical conductivity is 0.127 ± 0.025 S/m.

And the electrical conductivity (268.1 K, x1 = 0.6)?
The electrical conductivity was 0.143 ± 0.029 S/m.

What about the electrical conductivity (273.1 K, x1 = 0.33) of the same molecule?
The electrical conductivity was 0.195 ± 0.039 S/m.

And the electrical conductivity (273.1 K, x1 = 0.6)?
Its electrical conductivity is 0.206 ± 0.041 S/m.

What about the electrical conductivity (278.1 K, x1 = 0.33) of the same molecule?
Its electrical conductivity is 0.3 ± 0.06 S/m.

And the electrical conductivity (278.1 K, x1 = 0.6)?
Its electrical conductivity is 0.283 ± 0.057 S/m.

And the electrical conductivity (283.1 K, x1 = 0.33)?
The electrical conductivity was 0.39 ± 0.078 S/m.

What about the electrical conductivity (283.1 K, x1 = 0.6) of the same molecule?
The electrical conductivity was 0.385 ± 0.077 S/m.

And the electrical conductivity (288.1 K, x1 = 0.33)?
The electrical conductivity was 0.53 ± 0.11 S/m.

And the electrical conductivity (288.1 K, x1 = 0.6)?
The electrical conductivity was 0.515 ± 0.1 S/m.

What about the electrical conductivity (293.1 K, x1 = 0.33) of the same molecule?
Its electrical conductivity is 0.705 ± 0.14 S/m.

What about the electrical conductivity (293.1 K, x1 = 0.6) of the same molecule?
Its electrical conductivity is 0.669 ± 0.13 S/m.

And the electrical conductivity (298.1 K, x1 = 0.33)?
The electrical conductivity was 0.907 ± 0.18 S/m.

And the electrical conductivity (298.1 K, x1 = 0.6)?
The electrical conductivity was 0.861 ± 0.17 S/m.

What about the electrical conductivity (303.1 K, x1 = 0.33) of the same molecule?
The electrical conductivity was 1.11 ± 0.22 S/m.

And the electrical conductivity (303.1 K, x1 = 0.6)?
The electrical conductivity was 1.08 ± 0.22 S/m.

And the electrical conductivity (308.1 K, x1 = 0.33)?
Its electrical conductivity is 1.37 ± 0.27 S/m.

What about the electrical conductivity (308.1 K, x1 = 0.6) of the same molecule?
The electrical conductivity was 1.32 ± 0.26 S/m.

And the electrical conductivity (313.1 K, x1 = 0.33)?
Its electrical conductivity is 1.67 ± 0.33 S/m.

And the electrical conductivity (313.1 K, x1 = 0.6)?
Its electrical conductivity is 1.6 ± 0.32 S/m.

What about the electrical conductivity (318.1 K, x1 = 0.33) of the same molecule?
Its electrical conductivity is 2.02 ± 0.4 S/m.

And the electrical conductivity (318.1 K, x1 = 0.6)?
Its electrical conductivity is 1.91 ± 0.38 S/m.

And the electrical conductivity (323.1 K, x1 = 0.33)?
The electrical conductivity was 2.4 ± 0.48 S/m.

And the electrical conductivity (323.1 K, x1 = 0.6)?
Its electrical conductivity is 2.26 ± 0.45 S/m.

And the electrical conductivity (328.1 K, x1 = 0.33)?
The electrical conductivity was 2.81 ± 0.56 S/m.

And the electrical conductivity (328.1 K, x1 = 0.6)?
Its electrical conductivity is 2.64 ± 0.53 S/m.

What about the electrical conductivity (333.1 K, x1 = 0.33) of the same molecule?
Its electrical conductivity is 3.29 ± 0.66 S/m.

And the electrical conductivity (333.1 K, x1 = 0.6)?
The electrical conductivity was 3.11 ± 0.62 S/m.

And the electrical conductivity (338.1 K, x1 = 0.33)?
The electrical conductivity was 3.8 ± 0.76 S/m.

What about the electrical conductivity (338.1 K, x1 = 0.6) of the same molecule?
Its electrical conductivity is 3.56 ± 0.71 S/m.

What about the electrical conductivity (343.1 K, x1 = 0.33) of the same molecule?
Its electrical conductivity is 4.34 ± 0.87 S/m.

What about the electrical conductivity (343.1 K, x1 = 0.6) of the same molecule?
The electrical conductivity was 4.02 ± 0.8 S/m.

What about the electrical conductivity (348.1 K, x1 = 0.33) of the same molecule?
Its electrical conductivity is 4.9 ± 0.98 S/m.

What about the electrical conductivity (348.1 K, x1 = 0.6) of the same molecule?
Its electrical conductivity is 4.56 ± 0.91 S/m.

And the electrical conductivity (353.1 K, x1 = 0.33)?
Its electrical conductivity is 5.68 ± 1.1 S/m.

And the electrical conductivity (353.1 K, x1 = 0.6)?
Its electrical conductivity is 5.08 ± 1 S/m.

What about the electrical conductivity (358.1 K, x1 = 0.33) of the same molecule?
The electrical conductivity was 6.27 ± 1.2 S/m.

What about the electrical conductivity (358.1 K, x1 = 0.6) of the same molecule?
Its electrical conductivity is 5.63 ± 1.1 S/m.

What about the electrical conductivity (363.1 K, x1 = 0.33) of the same molecule?
Its electrical conductivity is 7.13 ± 1.4 S/m.

What about the electrical conductivity (363.1 K, x1 = 0.6) of the same molecule?
The electrical conductivity was 6.17 ± 1.2 S/m.

And the electrical conductivity (368.1 K, x1 = 0.33)?
Its electrical conductivity is 7.95 ± 1.6 S/m.

What about the electrical conductivity (368.1 K, x1 = 0.6) of the same molecule?
Its electrical conductivity is 7.28 ± 1.5 S/m.

What about the electrical conductivity (373.1 K, x1 = 0.33) of the same molecule?
The electrical conductivity was 8.5 ± 1.7 S/m.

What about the electrical conductivity (373.1 K, x1 = 0.6) of the same molecule?
Its electrical conductivity is 8.09 ± 1.6 S/m.

And the electrical conductivity (378.1 K, x1 = 0.33)?
The electrical conductivity was 9.11 ± 1.8 S/m.

And the electrical conductivity (378.1 K, x1 = 0.6)?
The electrical conductivity was 9.1 ± 1.8 S/m.

And the electrical conductivity (383.1 K, x1 = 0.33)?
The electrical conductivity was 9.97 ± 2 S/m.

What about the electrical conductivity (383.1 K, x1 = 0.6) of the same molecule?
Its electrical conductivity is 9.72 ± 1.9 S/m.

And the electrical conductivity (388.1 K, x1 = 0.33)?
The electrical conductivity was 10.9 ± 2.2 S/m.

And the electrical conductivity (388.1 K, x1 = 0.6)?
The electrical conductivity was 10.1 ± 2 S/m.

And the electrical conductivity (393.1 K, x1 = 0.33)?
The electrical conductivity was 11.8 ± 2.4 S/m.

And the electrical conductivity (393.1 K, x1 = 0.6)?
The electrical conductivity was 10.4 ± 2.1 S/m.

What about the electrical conductivity (398.1 K, x1 = 0.33) of the same molecule?
The electrical conductivity was 12.3 ± 2.5 S/m.

What about the electrical conductivity (403.1 K, x1 = 0.33) of the same molecule?
Its electrical conductivity is 12.7 ± 2.5 S/m.
